# Earlier results in patent US20060121016A1, “Methods and compositions for treatment of free radical injury” (priority 2004, published 2006).
# Details: administered both before and after the operation
compound,measurement,value
Oc1ncnc2[nH]ncc12 [allopurinol],Reduction of incidence of complication following surgery,70%
